Test [1] relates to A549 cells. The following applies: data provided by National Cancer Institute, Developmental Therapeutic Program; cited from earlier work.
Test [2] concerns the target T1, KSP motor domain (Homo sapiens, UniProt P52732).
T1 construct: 100 nM KSP motor domain, 50 μg/ml microtubules
T1 sequence (P52732 18-359 limits assumed): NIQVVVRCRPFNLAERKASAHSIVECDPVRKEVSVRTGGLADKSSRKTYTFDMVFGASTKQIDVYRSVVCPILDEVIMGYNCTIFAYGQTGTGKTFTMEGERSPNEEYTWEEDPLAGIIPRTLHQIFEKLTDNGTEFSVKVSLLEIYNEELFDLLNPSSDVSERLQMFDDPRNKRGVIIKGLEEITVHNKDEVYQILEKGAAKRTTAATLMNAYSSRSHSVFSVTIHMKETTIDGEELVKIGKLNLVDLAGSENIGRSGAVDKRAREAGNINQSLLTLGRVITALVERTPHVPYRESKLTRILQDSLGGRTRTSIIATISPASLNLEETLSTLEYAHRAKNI
Kind of test: KSP ATPase assay (IC50 for KSP activity). The test is classed as biochemical. As for the experimental part:
One measure of inhibition is IC50, defined as the concentration of the composition at which the activity of KSP is decreased by fifty percent relative to a control. Preferred compositions have […] of less than about 1 mM, with preferred embodiments having IC50's of less than about 100 μM, with more preferred embodiments having IC50's of less than about 10 μM, with particularly preferred embodiments having IC50's of less than about 1 μM, and especially preferred embodiments having IC50's of less than about 100 nM, and with the most preferred embodiments having IC50's of less than about 10 nM. Measurement of IC50 is done using an ATPase assay.
Measurement of a composition's IC50 for KSP activity uses an ATPase assay. The following solutions are used: Solution 1 consists of 3 mM phosphoenolpyruvate potassium salt (Sigma P-7127), 2 mM ATP (Sigma A-3377), 1 mM DTT (Sigma D-9779), 5 μM paclitaxel (Sigma T-7402), 10 ppm antifoam 289 (Sigma A-8436), 25 mM Pipes/KOH pH 6.8 (Sigma P6757), 2 mM MgC12 (VWR JT400301), and 1 mM EGTA (Sigma E3889). Solution 2 consists of 1 mM NADH (Sigma N8129), 0.2 mg/ml BSA (Sigma A7906), pyruvate kinase 7 U/ml, L-lactate dehydrogenase 10 U/ml (Sigma P0294), 100 nM KSP motor domain, 50 μg/ml microtubules, 1 mM DTT (Sigma D9779), 5 μM paclitaxel (Sigma T-7402), 10 ppm antifoam 289 (Sigma A-8436), 25 mM Pipes/KOH pH 6.8 (Sigma P6757), 2 mM MgC12 (VWR JT4003-01), and 1 mM EGTA (Sigma E3889). Serial dilutions (8-12 two-fold dilutions) of the composition are made in a 96-well microtiter plate (Corning Costar 3695) using Solution 1. Following serial dilution each well has 50 μl of Solution 1. The reaction is started by adding 50 μl of solution 2 to each well. This may be done with a multichannel pipettor either manually or with automated liquid handling devices. The microtiter plate is then transferred to a microplate absorbance reader and multiple absorbance readings at 340 nm are taken for each well in a kinetic mode. The observed rate of change, which is proportional to the ATPase rate, is then plotted as a function of the compound concentration. For a standard IC50 determination the data acquired is fit by the following four parameter equation using a nonlinear fitting program (e.g., Grafit 4): […]
where y is the observed rate and x the compound concentration. […] By this we mean that although most of the compounds that inhibited KSP activity biochemically did inhibit cell proliferation, for some, at the highest concentration tested (generally about 20 μM), cell growth was inhibited less than 50%. […] Anti-proliferative compounds that have been successfully applied in the clinic to treatment of cancer (cancer chemotherapeutics) have IC50's that vary greatly. […]

Test [3] has as its system tumor cell lines including SKOV3 and Colo205. Kind of test: Inhibition of cellular proliferation in tumor cell lines (MTS, 48 hours). The test is classed as cell-based, human. The following applies: various tumor cell lines including SKOV3 and Colo205; 'typically'. As for the experimental part: Cells were plated in 96-well plates at densities from 1000-2500 cells/well of a 96-well plate and allowed to adhere/grow for 24 hours. They were then treated with various concentrations of drug for 48 hours. The time at which compounds are added is considered T0. A tetrazolium-based assay using the reagent 3-(4,5-dimethylthiazol-2-yl)-5-(3-carboxymethoxyphenyl)-2-(4-sulfophenyl)-2H-tetrazolium (MTS) (U.S. Pat. No. 5,185,450) (see Promega product catalog #G3580, CellTiter 96® AQueous One Solution Cell Proliferation Assay) was used to determine the number of viable cells at T0 and the number of cells remaining after 48 hours compound exposure. The number of cells remaining after 48 hours was compared to the number of viable cells at the time of drug addition, allowing for calculation of growth inhibition.
The growth over 48 hours of cells in control wells that had been treated with vehicle only (0.25% DMSO) is considered 100% growth and the growth of cells in wells with compounds is compared to this.
An IC50 was calculated by plotting the concentration of compound in μM vs the percentage of cell growth of cell growth in treated wells. The IC50 calculated for the compounds is the estimated concentration at which growth is inhibited by 50% compared to control, i.e., the concentration at which:
All concentrations of compounds are tested in duplicate and controls are averaged over 12 wells. A very similar 96-well plate layout and IC50 calculation scheme is used by the National Cancer Institute (see Monks, et al., J. Natl. Cancer Inst. 83:757-766 (1991)).

We go through 8 compounds from patent US20090170882A1, “Methods and compositions” (priority 2004, published 2009).

Regarding `O=c1[nH]cc(F)c(=O)[nH]1` [5-fluorouracil], the half-inhibitory concentration (IC50) (in general, the concentration at which inhibition is half-maximal) in test [1] was 1 µM.
As to `Nc1cccc2c1[nH]c1ccc(C(F)(F)F)cc12` [6-(trifluoromethyl)-9H-carbazol-1-ylamine], in test [2], the “IC50 for inhibition of KSP” value was “not active”. Further, the “IC50 for inhibition of proliferation of tumor cell lines” value in test [3] is “not active”.
Turning to `CS(=O)(=O)Nc1ccc2[nH]c3ccc(C(F)(F)F)cc3c2c1` [6-(trifluoromethyl-9H-carbazol-3-yl)-methanesulfonamide], the “IC50 for inhibition of KSP” value in test [2] is on record as “not active”. The “IC50 for inhibition of proliferation of tumor cell lines” value in test [3] is “not active”.
With `NC(=O)Nc1ccc2[nH]c3ccc(C(F)(F)F)cc3c2c1` [(6-Trifluoromethyl-9H-carbazol-3-yl)-urea], in test [2], the “IC50 for inhibition of KSP” value is given as “not active”. In test [3], the “IC50 for inhibition of proliferation of tumor cell lines” value is reported as “not active”.
`CS(=O)(=O)Nc1cccc2c1[nH]c1ccc(C(F)(F)F)cc12` [N-[6-(trifluoromethyl)-9H-carbazol-1-yl]methanesulfonamide]: the “IC50 for inhibition of KSP” value in test [2] is given as “not active”. For the same compound, the “IC50 for inhibition of proliferation of tumor cell lines” value in test [3] was “not active”.
In the case of `COc1cccc2c1C(=O)c1c(O)c3c(c(O)c1C2=O)C[C@@](O)(C(=O)CO)C[C@@H]3O[C@H]1C[C@H](N)[C@H](O)[C@H](C)O1` [doxorubicin], in test [1], the IC50 is 0.063 µM.
As to `NC(=O)NO` [hydroxyurea], the IC50 in test [1] was 500 µM.
Regarding `CC(=O)O[C@H]1C(=O)[C@@]2(C)[C@H]([C@H](OC(=O)c3ccccc3)[C@]3(O)C[C@H](OC(=O)[C@H](O)[C@@H](NC(=O)c4ccccc4)c4ccccc4)C(C)=C1C3(C)C)[C@]1(OC(C)=O)CO[C@@H]1C[C@@H]2O` [paclitaxel], the IC50 in test [1] was 0.004 µM.
